Assay [1] can be described thus: Fermentation of first milk substrate (dried skimmed milk powder), pH monitoring. As to conditions: incubated at 30° C. How it is done: (§1) Lactic acid producing bacteria listed in Table 1 were tested for their ability to ferment two milk substrates according to the following procedures:
(§2) A commercially available dried skimmed milk powder was prepared according to the manufacturer's instructions to provide a first milk substrate. A milk replacer for calves (70 g) was mixed with water (100 g) to provide a second milk substrate. Both substrates were placed in a steamer for 30 minutes/day for each of 3 days for sterilisation.
(§3) Each lactic acid producing bacteria was grown in MRS broth (ex Oxoid) for 24 hours at 37° C.
(§4) 100 ml of each milk substrate was inoculated with 100 μl of the culture of each lactic acid producing bacteria. The samples were incubated at 30° C. for 48 hours. The ability of the bacteria to ferment the milk substrate was determined by monitoring the pH at intervals during the incubation of 0, 8, 24, 32 and 48 hours, with a reduction in the pH indicating the production of lactic acid. The results for the first and second milk substrates are set out in Tables 3 and 4 respectively.

Assay [2] in a line: Fermentation of second milk substrate (milk replacer for calves), pH monitoring. The conditions noted are these: incubated at 30° C. On the procedure: as §1, §2, §3, §4

In the case of “Lactobacillus salivarius ss. Salivarius [NCIMB 41609]”, the pH in assay [1] (0 h) turned out to be 6.69; in assay [1] (8 h), 6.62; in assay [1] (24 h), 5.72; in assay [1] (32 h), 4.98; in assay [1] (48 h), 4.56; in assay [2] (0 h), 5.55. Besides, the pH is 5.69 in assay [2] (8 h), 5.70 in assay [2] (24 h), 5.58 in assay [2] (32 h) and 4.93 in assay [2] (48 h).

For the substance Lactobacillus plantarum [NCIMB 41605], the pH in assay [1] (0 h) turned out to be 6.69; in assay [1] (8 h) it was 6.65; in assay [1] (24 h), 6.09; in assay [1] (32 h), 5.22; in assay [1] (48 h), 4.60; in assay [2] (0 h), 6.13. For the same substance, the pH in assay [2] (8 h) is on record as 6.46; in assay [2] (24 h), 6.51; in assay [2] (32 h), 5.90; in assay [2] (48 h), 5.72.

As for “Lactobacillus salivarius ss. Salivarius [NCIMB 41610]”, the pH in assay [1] (0 h) was determined as 6.69; in assay [1] (8 h) it was 6.68; in assay [1] (24 h), 5.69; in assay [1] (32 h), 4.96; in assay [1] (48 h), 4.46; in assay [2] (0 h), 5.55. The pH in assay [2] (8 h) is on record as 5.67; in assay [2] (24 h) it was 5.72; in assay [2] (32 h) it was 5.54; in assay [2] (48 h) it was 4.76.

For Lactobacillus plantarum [NCIMB 41608], the pH stood at 6.69 in assay [1] (0 h); 6.65 in assay [1] (8 h); 5.85 in assay [1] (24 h); 4.96 in assay [1] (32 h); 4.45 in assay [1] (48 h); 6.12 in assay [2] (0 h). Besides, the pH is on record as 6.44 in assay [2] (8 h), 6.50 in assay [2] (24 h), 6.25 in assay [2] (32 h) and 5.71 in assay [2] (48 h).

On to “Lactobacillus salivarius ss. Salivarius [NCIMB 41606]”, for which the pH in assay [1] (0 h) was determined as 6.69; in assay [1] (8 h), 6.61; in assay [1] (24 h) it was 5.55; in assay [1] (32 h), 4.76; in assay [1] (48 h) it was 4.35; in assay [2] (0 h) it was 5.82. Further, the pH in assay [2] (8 h) is recorded as 6.03; in assay [2] (24 h), 6.01; in assay [2] (32 h), 5.92; in assay [2] (48 h), 5.37.

For Lactobacillus plantarum [NCIMB 41607], the pH in assay [1] (0 h) is reported as 6.69; in assay [1] (8 h) it was 6.62; in assay [1] (24 h), 5.83; in assay [1] (32 h) it was 5.08; in assay [1] (48 h), 4.53; in assay [2] (0 h), 5.54. Also, the pH in assay [2] (8 h) was determined as 5.69; in assay [2] (24 h) it was 5.75; in assay [2] (32 h) it was 5.61; in assay [2] (48 h), 4.80.
